Legend:
Assay type in all cases: in vivo
[1] = test system: ABUTH: velvetleaf (Abutilon theophrasti); experiment: Post-emergent herbicidal test, velvetleaf; conditions: post-emergence, 336 h, 14 days after application, read-out: Visual Growth Reduction (%) 14 Days After Application ABUTH
Experimental: (§1) Post-Emergent Test: Seeds or nutlets of the desired test plant species were planted in Sun Gro Metro-Mix® 360 planting mixture, which typically has a pH of 6.0 to 6.8 and an organic matter content of about 30 percent, in plastic pots with a surface area of 64 square centimeters (cm^2). When required to ensure good germination and healthy plants, a fungicide treatment and/or other chemical or physical treatment was applied. The plants were grown for 7-21 d in a greenhouse with an approximate 15 h photoperiod which was maintained at about 23-29° C. during the day and 22-28° C. during the night. Nutrients and water were added on a regular basis and supplemental lighting was provided with overhead metal halide 1000-Watt lamps as necessary. The plants were employed for testing when they reached the first or second true leaf stage.
(§2) A weighed amount, determined by the highest rate to be tested, of each test compound was placed in a 25 mL glass vial and was dissolved in 4 mL of a 97:3 v/v mixture of acetone and DMSO to obtain concentrated stock solutions. […] The concentrated stock solutions obtained were diluted with 20 mL of an aqueous mixture containing acetone, water, isopropyl alcohol, DMSO, Atplus 411F crop oil concentrate, and Triton® X-155 surfactant in a 48.5:39:10:1.5:1.0:0.02 v/v ratio to obtain spray solutions containing the highest application rates. Additional application rates were obtained by serial dilution of 12 mL of the high rate solution into a solution containing 2 mL of a 97:3 v/v mixture of acetone and DMSO and 10 mL of an aqueous mixture containing acetone, water, isopropyl alcohol, DMSO, Atplus 411F crop oil concentrate, and Triton X-155 surfactant in a 48.5:39:10:1.5:1.0:0.02 v/v ratio to obtain ½×, ¼×, ⅛× and 1/16× rates of the high rate. Compound requirements are based upon a 12 mL application volume at a rate of 187 liters per hectare (L/ha). Formulated compounds were applied to the plant material with an overhead Mandel track sprayer equipped with 8002E nozzles calibrated to deliver 187 L/ha over an application area of 0.503 square meters at a spray height of 18 inches (43 cm) above the average plant canopy height. Control plants were sprayed in the same manner with the solvent blank.
(§3) The treated plants and control plants were placed in a greenhouse as described above and watered by subirrigation to prevent wash-off of the test compounds. After 14 d, the condition of the test plants as compared with that of the untreated plants was determined visually and scored on a scale of 0 to 100 percent where 0 corresponds to no injury and 100 corresponds to complete kill.

[2] = test system: BRSNN: oilseed rape, canola (Brassica napus); experiment: Post-emergent herbicidal test, oilseed rape; conditions: post-emergence, 336 h, 14 days after application, read-out: Visual Growth Reduction (%) 14 Days After Application BRSNN
Experimental: as §1, §2, §3

[3] = test system: CIRAR: Canada thistle (Cirsium arvense); experiment: Post-emergent herbicidal test, Canada thistle; conditions: post-emergence, 336 h, 14 days after application, read-out: Visual Growth Reduction (%) 14 Days After Application CIRAR
Experimental: as §1, §2, §3

[4] = test system: EPHHL: wild poinsettia (Euphorbia heterophylla); experiment: Post-emergent herbicidal test, wild poinsettia; conditions: post-emergence, 336 h, 14 days after application, read-out: Visual Growth Reduction (%) 14 Days After Application EPHHL
Experimental: as §1, §2, §3

[5] = test system: IPOHE: ivyleaf morningglory (Ipomoea hederacea); experiment: Post-emergent herbicidal test, ivyleaf morningglory; conditions: post-emergence, 336 h, 14 days after application, read-out: Visual Growth Reduction (%) 14 Days After Application IPOHE
Experimental: as §1, §2, §3

[6] = test system: VIOTR: wild violet (Viola tricolor); experiment: Post-emergent herbicidal test, wild violet; conditions: post-emergence, 336 h, 14 days after application, read-out: Visual Growth Reduction (%) 14 Days After Application VIOTR
Experimental: as §1, §2, §3

[7] = test system: CYPES: yellow nutsedge (Cyperus esculentus); experiment: Post-emergent herbicidal test, yellow nutsedge; conditions: post-emergence, 336 h, 14 days after application, read-out: Visual Growth Reduction (%) 14 Days After Application CYPES
Experimental: as §1, §2, §3

[8] = test system: DIGSA: large crabgrass (Digitaria sanguinalis); experiment: Post-emergent herbicidal test, large crabgrass; conditions: post-emergence, 336 h, 14 days after application, read-out: Visual Growth Reduction (%) 14 Days After Application DIGSA
Experimental: as §1, §2, §3

[9] = test system: ECHCG: barnyardgrass (Echinochloa crus-galli); experiment: Post-emergent herbicidal test, barnyardgrass; conditions: post-emergence, 336 h, 14 days after application, read-out: Visual Growth Reduction (%) 14 Days After Application ECHCG
Experimental: as §1, §2, §3

[10] = test system: SETFA: giant foxtail (Setaria faberi); experiment: Post-emergent herbicidal test, giant foxtail; conditions: post-emergence, 336 h, 14 days after application, read-out: Visual Growth Reduction (%) 14 Days After Application SETFA
Experimental: as §1, §2, §3

[11] = test system: SORVU: shattercane (Sorghum bicolor); experiment: Post-emergent herbicidal test, shattercane; conditions: post-emergence, 336 h, 14 days after application, read-out: Visual Growth Reduction (%) 14 Days After Application SORVU
Experimental: as §1, §2, §3

COC(=O)c1nc(-c2ccc(F)c3c2OCO3)c(F)c(N)c1Cl [Compound 15]
70%: pest or weed control at 17.5 g/ha ([1]; 17.5 g ai/ha) | pest or weed control at 70 g/ha ([6]; 70 g ai/ha)
40%: pest or weed control at 35 g/ha ([2]; 35 g ai/ha)
95%: pest or weed control at 70 g/ha ([2]; 70 g ai/ha) | pest or weed control at 140 g/ha ([3]; 140 g ai/ha)
30%: pest or weed control at 17.5 g/ha ([6]; 17.5 g ai/ha)
60%: pest or weed control at 35 g/ha ([6]; 35 g ai/ha)
20%: pest or weed control at 17.5 g/ha ([2]; 17.5 g ai/ha) | pest or weed control at 140 g/ha ([10]; 140 g ai/ha) | pest or weed control at 140 g/ha ([11]; 140 g ai/ha)
100%: pest or weed control at 140 g/ha ([1]; 140 g ai/ha) | pest or weed control at 140 g/ha ([2]; 140 g ai/ha)
80%: pest or weed control at 17.5 g/ha ([3]; 17.5 g ai/ha) | pest or weed control at 140 g/ha ([6]; 140 g ai/ha)
90%: pest or weed control at 70 g/ha ([1]; 70 g ai/ha) | pest or weed control at 70 g/ha ([3]; 70 g ai/ha)
85%: pest or weed control at 35 g/ha ([1]; 35 g ai/ha) | pest or weed control at 35 g/ha ([3]; 35 g ai/ha)
0%: pest or weed control at 17.5 g/ha ([4]; 17.5 g ai/ha) | pest or weed control at 35 g/ha ([4]; 35 g ai/ha) | pest or weed control at 70 g/ha ([4]; 70 g ai/ha) | pest or weed control at 140 g/ha ([4]; 140 g ai/ha) | pest or weed control at 17.5 g/ha ([5]; 17.5 g ai/ha) | pest or weed control at 35 g/ha ([5]; 35 g ai/ha) | pest or weed control at 70 g/ha ([5]; 70 g ai/ha) | pest or weed control at 140 g/ha ([5]; 140 g ai/ha) | pest or weed control at 17.5 g/ha ([7]; 17.5 g ai/ha) | pest or weed control at 35 g/ha ([7]; 35 g ai/ha) | pest or weed control at 70 g/ha ([7]; 70 g ai/ha) | pest or weed control at 140 g/ha ([7]; 140 g ai/ha) | pest or weed control at 17.5 g/ha ([8]; 17.5 g ai/ha) | pest or weed control at 35 g/ha ([8]; 35 g ai/ha) | pest or weed control at 70 g/ha ([8]; 70 g ai/ha) | pest or weed control at 140 g/ha ([8]; 140 g ai/ha) | pest or weed control at 17.5 g/ha ([9]; 17.5 g ai/ha) | pest or weed control at 35 g/ha ([9]; 35 g ai/ha) | pest or weed control at 70 g/ha ([9]; 70 g ai/ha) | pest or weed control at 140 g/ha ([9]; 140 g ai/ha) | pest or weed control at 17.5 g/ha ([10]; 17.5 g ai/ha) | pest or weed control at 35 g/ha ([10]; 35 g ai/ha) | pest or weed control at 70 g/ha ([10]; 70 g ai/ha) | pest or weed control at 17.5 g/ha ([11]; 17.5 g ai/ha) | pest or weed control at 35 g/ha ([11]; 35 g ai/ha) | pest or weed control at 70 g/ha ([11]; 70 g ai/ha)

— US11718604B2, “4-amino-6-(1,3-benzodioxole)picolinates and their use as herbicides” (Dow AgroSciences LLC, priority 2018, dated 2023)
